Measurements reported in the RepoRT retention time repository.

Assay: HILIC, Waters ACQUITY UPLC BEH Amide, 100 × 2.1 mm, 1.7 µm; A: water + 0.125% formic acid + 10 mM ammonium formate; B: 5% water + 95% acetonitrile + 0.125% formic acid + 10 mM ammonium formate; gradient (min/%B) 0/100 2/100 7.7/70 9.5/40 10.25/30 12.75/100 17/100
Conditions: stereoisomer not certain

Structure (SMILES) | LC retention time
CCC1=C(C)CN(C(=O)NCCc2ccc(S(=O)(=O)NC(=O)NC3CCC(C)CC3)cc2)C1=O (stereo not drawn) [Glimepiride] | 1.05 min
CC(=O)OC12COC1CC(O)C1(C)C(=O)C(O)C3=C(C)C(OC(=O)C(O)C(NC(=O)OC(C)(C)C)c4ccccc4)CC(O)(C(OC(=O)c4ccccc4)C21)C3(C)C (stereo not drawn) [Docetaxel] | 1.34 min
CCCCC1=NC2(CCCC2)C(=O)N1Cc1ccc(-c2ccccc2-c2nn[nH]n2)cc1 [Irbesartan] | 1.16 min
CNC(=O)Oc1ccc2c(c1)C1(C)CCN(C)C1N2C (stereo not drawn) [Physostigmine] | 3.17 min
CC(=O)NCCCC(=O)O [4-Acetamidobutyric acid] | 2.26 min
COc1cc2ccc(=O)oc2cc1O [Scopoletin] | 1.16 min
NC(Cc1ccc(O)cc1)C(=O)NC(Cc1ccc(O)cc1)C(=O)NC(Cc1ccc(O)cc1)C(=O)O (stereo not drawn) [Tyr-Tyr-Tyr] | 7.09 min
O=C(O)CCc1c[nH]c2ccccc12 [3-Indolepropionic acid] | 1.28 min
NC(Cc1cnc[nH]1)C(=O)O (stereo not drawn) [Histidine] | 9.48 min
CN(C)CCOC(c1ccccc1)c1ccccc1 [Diphenhydramine] | 2.15 min
CC(=O)NC(CCCN=C(N)N)C(=O)O [N-.alpha.-Acetyl-L-arginine] | 8.16 min
OCC1OC(n2cnc3c(NC4CCCC4O)ncnc32)C(O)C1O (stereo not drawn) [N-2-Hydroxycyclopentyladenosine] | 3.48 min
CC1(C)CC1C(=O)NC(=CCCCCSCC(N)C(=O)O)C(=O)O (stereo not drawn) [Cilastatin] | 7.63 min
CCN(CC)C(=S)SSC(=S)N(CC)CC [Disulfiram] | 0.93 min
CC(C)C12OC1C1OC13C1(C)CCC4=C(COC4=O)C1CC1OC13C2O (stereo not drawn) [Triptolide] | 1.02 min
CC(C)C(O)C(=O)O (stereo not drawn) [2-Hydroxy-3-methylbutyric acid] | 1.29 min
COC(=O)C1=C(C)NC(C)=C(C(=O)OC2CCCN(Cc3ccccc3)C2)C1c1cccc([N+](=O)[O-])c1 (stereo not drawn) [Benidipine] | 1.46 min
CCC(COC(=O)c1cc(OC)c(OC)c(OC)c1)(c1ccccc1)N(C)C (stereo not drawn) [Trimebutine] | 1.47 min
NC(=O)CCC(NC(=O)C1CCCN1)C(=O)O (stereo not drawn) [Pro-Gln] | 8.75 min
COC1C=COC2(C)Oc3c(C)c(O)c4c(O)c(c5c(c4c3C2=O)=NC2(CCN(CC(C)C)CC2)N=5)NC(=O)C(C)=CC=CC(C)C(O)C(C)C(O)C(C)C(OC(C)=O)C1C (stereo not drawn) [Rifabutin] | 2.76 min
COC1C(O)C(CO)OC1n1cnc2c(=O)[nH]cnc21 (stereo not drawn) [2'-O-Methylinosine] | 4.06 min
CC(C)CC(N)C(=O)NC(CCCN=C(N)N)C(=O)O (stereo not drawn) [Leu-Arg] | 8.86 min

Structure (SMILES) | LC retention time
CC(C)C(NC(=O)C(N)CCCN=C(N)N)C(=O)O (stereo not drawn) [Arg-Val] | 9.3 min
CN1C(=O)CN=C(c2ccccc2)c2cc([N+](=O)[O-])ccc21 [Nimetazepam] | 0.98 min
O=c1c(-c2ccccc2)c1-c1ccccc1 [Diphenylcyclopropenone] | 1.01 min
c1ccc(Cn2ccnc2)cc1 [1-Benzylimidazole] | 1.63 min
CCC1(CC)C(=O)NCC(C)C1=O (stereo not drawn) [Methyprylon] | 1.18 min
CCCC(C)(COC(N)=O)COC(N)=O [Meprobamate] | 1.25 min
CC12CCC(=O)C=C1CCC1C2C(=O)CC2(C)C1CCC2(O)C(=O)CO (stereo not drawn) [Cortisone] | 1.29 min
CC(c1ncncc1F)C(O)(Cn1cncn1)c1ccc(F)cc1F (stereo not drawn) [Voriconazole] | 1.02 min
O=C1CCCC(=O)C1 [1,3 Cyclohexanedione] | 1.47 min
c1ccncc1 [Pyridine] | 6.63 min
CC(=O)NCCCCNCCCN [N8-Acetylspermidine] | 8.87 min
CN1CCC2(c3cccc(O)c3)Cc3nc4ccccc4cc3CC2C1 (stereo not drawn) | 5.11 min
O=c1[nH]cnc2c1ncn2C1OC(CO)C(O)C1O (stereo not drawn) [Inosine] | 6.19 min
CC(C)(C)NC(=O)C1CCC2C3CCC4NC(=O)C=CC4(C)C3CCC12C (stereo not drawn) [Finasteride] | 1.17 min
c1ccc2c3c([nH]c2c1)CNCC3 [Tryptoline] | 4.9 min
NC(Cc1ccc(OP(=O)(O)O)cc1)C(=O)O (stereo not drawn) [Phosphotyrosine] | 9.72 min
CC1CNc2c(cccc2S(=O)(=O)NC(CCCN=C(N)N)C(=O)N2CCC(C)CC2C(=O)O)C1 (stereo not drawn) [Argatroban] | 5.45 min
CC1COc2c(C3(N)CC3)c(F)cc3c(=O)c(C(=O)O)cn1c23 (stereo not drawn) [Pazufloxacin] | 2.49 min
Nc1ccc(C(=O)O)cc1 [4-Aminobenzoic acid] | 7.49 min
CC(=O)NCC1CN(c2ccc(N3CCOCC3)c(F)c2)C(=O)O1 (stereo not drawn) [Linezolide] | 1.15 min
CC(C)NCC(O)COc1ccc(CCOCC2CC2)cc1 (stereo not drawn) [Betaxolol] | 3.05 min
CCN(C(C)=O)c1cccc(-c2ccnc3c(C#N)cnn23)c1 [Zaleplon] | 1.02 min

Structure (SMILES) | LC retention time
CN(CCOc1ccc(CC2SC(=O)NC2=O)cc1)c1ccccn1 (stereo not drawn) [Rosigltazone] | 1.24 min
NCCc1ccccc1 [Phenethylamine] | 4.87 min
C=CC1=C(C(=O)O)N2C(=O)C(NC(=O)C(=NOCC(=O)O)c3csc(N)n3)C2SC1 (stereo not drawn) [Cefixime] | 7.79 min
CCN1CCCC1CNC(=O)c1c(O)c(Cl)cc(Cl)c1OC (stereo not drawn) [Raclopride] | 2.11 min
CN1C2CCCC1CC(NC(=O)c1nn(C)c3ccccc13)C2 (stereo not drawn) [Granisetron] | 4.12 min
O=C1CN=C(c2ccccn2)c2cc(Br)ccc2N1 [Bromazepam] | 1.3 min
Cc1sc(N)c(C(=O)c2cccc(C(F)(F)F)c2)c1C | 0.94 min
NC(=O)Cc1c[nH]c2ccccc12 [Indole-3-acetamide] | 1.36 min
Cc1nc2ccc(CN(C)c3ccc(C(=O)NC(CCC(=O)O)C(=O)O)s3)cc2c(=O)[nH]1 (stereo not drawn) [Raltitrexed] | 7.35 min
Nc1c(O)cccc1C(=O)O [3-Hydroxyanthranilic acid] | 1.48 min
CN(C)CCc1c[nH]c2ccc(Cn3cncn3)cc12 [Rizatriptan] | 5.11 min
NC(COP(=O)(O)O)C(=O)O (stereo not drawn) [O-Phosphoserine] | 9.85 min
CC(=O)OCc1ccccc1 [Benzylacetate] | 8.71 min
O=c1ccn(C2OC(CO)C(O)C2O)c(=S)[nH]1 (stereo not drawn) [2-Thiouridine] | 2.48 min
Nc1nc2c(ncn2C2OC(CO)C(O)C2O)c(=O)[nH]1 (stereo not drawn) [Guanosine] | 7.33 min
CC(CN)C(=O)O (stereo not drawn) [3-Aminoisobutyric acid] | 7.4 min
Nc1ncnc2c1ncn2C1CC(O)C(CO)O1 (stereo not drawn) [2'-Deoxyadenosine] | 3.92 min
CN1C(=O)C(O)CC1c1cccnc1 (stereo not drawn) [trans-3'-Hydroxycotinine] | 2.02 min
CC(=O)C1(O)CCC2C3CC(C)C4=CC(=O)CCC4(C)C3CCC21C (stereo not drawn) [Medroxyprogesterone] | 1.01 min
CCCCCCCCCOc1ccc2[nH]cc(CCN)c2c1 [5-Nonyloxytryptamine] | 3.4 min
O=c1c(-c2ccc(O)cc2)coc2cc(O)cc(O)c12 [4,5,7-Trihydroxyisoflavone] | 1.27 min
CNC(C(=O)O)C(C)O (stereo not drawn) [N-Methylthreonine] | 7.68 min

Structure (SMILES) | LC retention time
CC(C)CCCC(C)C1CCC2C3CC=C4CC(OC(=O)NCCN(C)C)CCC4(C)C3CCC12C (stereo not drawn) [3-beta-Cholest-5-en-3-yl [2-(dimethylamino)ethyl]carbamate] | 2.34 min
CC(=O)NC1C(O)OC(CO)C(O)C1O (stereo not drawn) [N-Acetylmannosamine] | 7.01 min
CN1CC(=O)NC1=N [Creatinine] | 4.93 min
O=C(O)CCCCCCC(O)CC(=O)O (stereo not drawn) [3-Hydroxysebacic acid] | 2.55 min
COc1ccccc1N1CCN(CC(O)COc2cccc3ccccc23)CC1 (stereo not drawn) [Naftopidil] | 1.99 min
COc1cn(C2OC(CO)C(O)C2O)c(=O)[nH]c1=O (stereo not drawn) [5-Methoxyuridine] | 4.72 min
NC(CSCC(=O)O)C(=O)O (stereo not drawn) [Carbocysteine] | 9.04 min
Cn1c[n+](C2OC(CO)C(O)C2O)c2nc(N)[nH]c(=O)c21 (stereo not drawn) [7-Methylguanosine] | 7.34 min
O=C1CCc2ccc(OCCCCN3CCN(c4cccc(Cl)c4Cl)CC3)cc2N1 [Aripiprazole] | 3.14 min
CC(C)CC(=O)OC(CC(=O)[O-])C[N+](C)(C)C [Isovaleryl-L-carnitine] | 5.36 min
CCC(C)C(NC)C(=O)O (stereo not drawn) [N-Methylisoleucine] | 6.44 min
O=C(O)C1CC(O)CN1C(=O)C1CCCN1 (stereo not drawn) [Proline-hydroxyproline] | 8.6 min
O=Cc1cccc(O)c1 [3-Hydroxybenzaldehyde] | 1.18 min
CCc1nn(CCCN2CCN(c3cccc(Cl)c3)CC2)c(=O)n1CCOc1ccccc1 [Nefazodone] | 1.88 min
CCCCCCCCCCCCCCCC(=O)OC(CC(=O)[O-])C[N+](C)(C)C (stereo not drawn) [Palmitoylcarnitine cation] | 3.23 min
COc1cc(CNC(=O)CCCCCCC(C)C)ccc1O [Dihydrocapsaicin] | 1.07 min
CC(C)CC(NC(=O)CN)C(=O)O (stereo not drawn) [Glycyl-leucine] | 8.14 min
O=P(O)(O)OC1OC(CO)C(O)C(O)C1O (stereo not drawn) [Glucose-1-phosphate] | 9.61 min
COC(=O)Nc1nc2ccc(C(=O)c3ccc(F)cc3)cc2[nH]1 [Flubendazole] | 1.16 min
Cc1cn(C2OC(CO)C(O)C2O)c(=S)[nH]c1=O (stereo not drawn) [5-Methyl-2-thiouridine] | 1.98 min
CC(C)C(NC(=O)C(N)CCCCN)C(=O)O (stereo not drawn) [Lys-Val] | 9.38 min
O=C(O)c1c[nH]c2ccccc12 [Indole-3-carboxylic acid] | 1.41 min
